Source: patent US8563717B2, “Adenine derivatives” (GlaxoSmithKline LLC, priority 2008, dated 2013)
Counter-ions that a name gives are not always drawn.

System: Interferon-α
Assay: Induction of Interferon-α using cryopreserved human PBMCs
Format: cell-based
Conditions: PBMC, 24 h incubation, normalised to 1 uM resiquimod, read-out: mean pEC50 for induction of IFN-α (converted)
Protocol: Assay for the Induction of Interferon-α Using Cryopreserved Human Peripheral Blood Mononuclear Cells (PBMCs)
Compounds were dissolved in DMSO. Serial 2-fold dilutions with DMSO were prepared and 0.25 μl dispensed into 384-well clear Greiner polypropylene plates.
Blood samples of up to 200 ml were obtained from healthy human donors. Whole blood in 25 ml volumes was overlaid onto 15 ml Ficoll gradients in Leucosep tubes, and centrifuged at 1000 g for 20 min. Cells in the band at the plasma/histopaque interface were carefully removed and washed twice with PBS (centrifuged at 400 g for 5 min to harvest). The final pellet was resuspended in freezing medium (90% Heat-inactivated serum, 10% DMSO) to a cell concentration of 4×10^7 cells/ml. The resuspended cells were then cryopreserved (frozen) using a rate controlled freezer, and stored at −140° C. for up to 4 months.
Immediately prior to assay, vials of cryopreserved (frozen) PBMCs were thawed rapidly in a water bath at 37° C. A 1:10 dilution of the cells in trypan blue was prepared and counted. The PBMCs were then diluted in growth media [RPMI 1640 containing 10% fetal calf serum (invitrogen), Penicillin+[…] (Gibco cat. #25030-024, 1:50), L-Glutamine 2 mM, and 1000 units/ml recombinant human IFN-gamma (Preprotech catalogue #300-02)] to a density of 1×10^6 cells/ml, and 50 ul/well dispensed to 384-well clear Greiner polypropylene plates containing 0.25 μl DMSO or test compound in 0.25 μl DMSO. […] Plates were incubated for 24 h at 37° C. in 5% CO2.
A multi-isoform immunoassay was used to quantify IFN-α in PBMC supernatants. Rabbit polyclonal antibody against human IFN-α (catalogue number 31101, Stratech Scientific) was diluted 1:10000 in assay buffer (RPMI 1640 containing 10% fetal calf serum, Invitrogen) and 20 μl was added to each well of an MSD (Meso-Scale Discovery) single small-spot 384-well GAR (goat anti-rabbit antibody coated) plate. The plate was incubated for 1 hour at room temperature with vigorous shaking. Following three washes with PBS, 20 μl of cell supernatant were added to each well of the plate. The plate was then incubated for 1 hour at room temperature with vigorous shaking. A pair of monoclonal antibodies to IFN-α (catalogue numbers 21100 and 21112, Stratech Scientific) were labelled with sulfo-TAG (MSD), diluted 1:1000 in assay buffer and 20 μl added to each well of the plate. The plate was further incubated for 1 hour at room temperature with vigorous shaking. Following three washes with PBS, 30 μl of x2 T buffer (MSD) was added to each well and the plate was read on an MSD Sector 6000 plate reader.
Data were normalised to internal plate controls of 1 uM resiquimod (n=16) and DMSO (n=16). pEC50 values were derived by 4-parameter curve fit with IRLS in ActivityBase, from 11-point, two-fold serial dilution of test compounds.

Row | Structure (SMILES) | EC50
1 | CCCCNc1nc(N)c2[nH]c(=O)n(CC3CCCN(CC)C3)c2n1 (stereo not shown) [Example 2, 6-Amino-2-(butylamino)-9-[(1-ethyl-3-piperidinyl)methyl]-7,9-dihydro-8H-purin-8-one] | < 1580 nM
2 | CCCCOc1nc(N)c2[nH]c(=O)n(CC3CCNCC3)c2n1 [Example 3, hydrochloride] | < 1580 nM
3 | CCCCOc1nc(N)c2[nH]c(=O)n(CC3CCCNC3)c2n1 (stereo not shown) [Example 4, hydrochloride] | < 1580 nM
4 | CCCCOc1nc(N)c2[nH]c(=O)n(CCC3CCNCC3)c2n1 [Example 6, hydrochloride] | < 1580 nM
5 | CCCCOc1nc(N)c2[nH]c(=O)n(CCC3CCCCN3)c2n1 (stereo not shown) [Example 11, 6-Amino-2-(butyloxy)-9-[2-(2-piperidinyl)ethyl]-7,9-dihydro-8H-burin-8-one] | < 1580 nM
6 | CCCCOc1nc(N)c2[nH]c(=O)n(CCC3CCCCN3CC)c2n1 (stereo not shown) [Example 12, 6-Amino-2-(butyloxy)-9-[2-(1-ethyl-2-piperidinyl)ethyl]-7,9-dihydro-8H-purin-8-one] | < 1580 nM
7 | CCCCOc1nc(N)c2[nH]c(=O)n(CCCC3CCCCN3)c2n1 (stereo not shown) [Example 13, 6-Amino-2-(butyloxy)-9-[3-(2-piperidinyl)propyl]-7,9-dihydro-8H-purin-8-one] | < 1580 nM
8 | CCCCOc1nc(N)c2[nH]c(=O)n(CCCC3CCCCN3CC)c2n1 (stereo not shown) [Example 14, 6-Amino-2-(butyloxy)-9-[3-(1-ethyl-2-piperidinyl)propyl]-7,9-dihydro-8H-purin-8-one] | < 1580 nM
9 | CCCCOc1nc(N)c2[nH]c(=O)n(CCCC3CCCCN3CCC)c2n1 (stereo not shown) [Example 15, 6-Amino-2-(butyloxy)-9-[3-(1-propyl-2-piperidinyl)propyl]-7,9-dihydro-8H-purin-8-one] | < 1580 nM
10 | CCCCOc1nc(N)c2[nH]c(=O)n(CCCC3CCCCN3C(C)C)c2n1 (stereo not shown) [Example 16, 6-Amino-2-(butyloxy)-9-{3-[1-(1-methylethyl)-2-piperidinyl]propyl}-7,9-dihydro-8H-purin-8-one] | < 1580 nM
11 | CCCCOc1nc(N)c2[nH]c(=O)n(CCCC3CCCCN3CCCC)c2n1 (stereo not shown) [Example 17, 6-Amino-2-(butyloxy)-9-[3-(1-butyl-2-piperidinyl)propyl]-7,9-dihydro-8H-purin-8-one] | < 1580 nM
12 | CCCCOc1nc(N)c2[nH]c(=O)n(CCCC3CCCCN3CCC(C)C)c2n1 (stereo not shown) [Example 19, 6-Amino-2-(butyloxy)-9-{3-[1-(3-methylbutyl)-2-piperidinyl]propyl}-7,9-dihydro-8H-purin-8-one] | < 1580 nM
13 | CCCCOc1nc(N)c2[nH]c(=O)n(CCCC3CCCCN3C3CCCC3)c2n1 (stereo not shown) [Example 20, 6-Amino-2-(butyloxy)-9-[3-(1-cyclopentyl-2-piperidinyl)propyl]-7,9-dihydro-8H-purin-8-one] | < 1580 nM
14 | CCCCOc1nc(N)c2[nH]c(=O)n(CCCC3CCCCN3CC3CCCC3)c2n1 (stereo not shown) [Example 21, 6-Amino-2-(butyloxy)-9-{3-[1-(cyclopentylmethyl)-2-piperidinyl]propyl}-7,9-dihydro-8H-purin-8-one] | < 1580 nM
15 | CCCCOc1nc(N)c2[nH]c(=O)n(CCCC3CCCCN3CCC3CCCCC3)c2n1 (stereo not shown) [Example 22, 6-Amino-2-(butyloxy)-9-{3-[1-(2-cyclohexylethyl)-2-piperidinyl]propyl}-7,9-dihydro-8H-purin-8-one] | < 1580 nM
16 | CCCCOc1nc(N)c2[nH]c(=O)n(CC3CCCN(CCCC)C3)c2n1 (stereo not shown) [Example 25, 6-Amino-2-(butyloxy)-9-[(1-butyl-3-piperidinyl)methyl]-7,9-dihydro-8H-purin-8-one] | < 1580 nM
17 | CCCCOc1nc(N)c2[nH]c(=O)n(CC3CCCN(CC(C)C)C3)c2n1 (stereo not shown) [Example 26, 6-Amino-2-(butyloxy)-9-{[1-(2-methylpropyl)-3-piperidinyl]methyl}-7,9-dihydro-8H-purin-8-one] | < 1580 nM

Row | Structure (SMILES) | EC50
18 | CCCCOc1nc(N)c2[nH]c(=O)n(CC3CCCN(CCC(C)C)C3)c2n1 (stereo not shown) [Example 27, 6-Amino-2-(butyloxy)-9-{[1-(3-methylbutyl)-3-piperidinyl]methyl}-7,9-dihydro-8H-purin-8-one] | < 1580 nM
19 | CCCCOc1nc(N)c2[nH]c(=O)n(CC3CCCN(C4CCCC4)C3)c2n1 (stereo not shown) [Example 28, 6-Amino-2-(butyloxy)-9-[(1-cyclopentyl-3-piperidinyl)methyl]-7,9-dihydro-8H-purin-8-one hydrochloride] | < 1580 nM
20 | CCCCOc1nc(N)c2[nH]c(=O)n(CCC3CCCN(CCC)C3)c2n1 (stereo not shown) [Example 31, 6-Amino-2-(butyloxy)-9-[2-(1-propyl-3-piperidinyl)ethyl]-7,9-dihydro-8H-purin-8-one] | < 1580 nM
21 | CCCCOc1nc(N)c2[nH]c(=O)n(CCC3CCCN(CCCC)C3)c2n1 (stereo not shown) [Example 33, 6-Amino-2-(butyloxy)-9-[2-(1-butyl-3-piperidinyl)ethyl]-7,9-dihydro-8H-purin-8-one] | < 1580 nM
22 | CCCCOc1nc(N)c2[nH]c(=O)n(CCC3CCCN(CC(C)C)C3)c2n1 (stereo not shown) [Example 34, 6-Amino-2-(butyloxy)-9-{2-[1-(2-methylpropyl)-3-piperidinyl]ethyl}-7,9-dihydro-8H-purin-8-one] | < 1580 nM
23 | CCCCOc1nc(N)c2[nH]c(=O)n(CCC3CCCN(C(CC)CC)C3)c2n1 (stereo not shown) [Example 35, 6-Amino-2-(butyloxy)-9-{2-[1-(1-ethylpropyl)-3-piperidinyl]ethyl}-7,9-dihydro-8H-purin-8-one] | < 1580 nM
24 | CCCCOc1nc(N)c2[nH]c(=O)n(CCC3CCCN(C4CCCC4)C3)c2n1 (stereo not shown) [Example 36, 6-Amino-2-(butyloxy)-9-[2-(1-cyclopentyl-3-piperidinyl)ethyl]-7,9-dihydro-8H-purin-8-one] | < 1580 nM
25 | CCCCOc1nc(N)c2[nH]c(=O)n(CCC3CCCN(CC4CCCC4)C3)c2n1 (stereo not shown) [Example 37, 6-Amino-2-(butyloxy)-9-{2-[1-(cyclopentylmethyl)-3-piperidinyl]ethyl}-7,9-dihydro-8H-purin-8-one] | < 1580 nM
26 | CCCCOc1nc(N)c2[nH]c(=O)n(CCC3CCCN(CCC4CCCCC4)C3)c2n1 (stereo not shown) [Example 39, 6-Amino-2-(butyloxy)-9-{2-[1-(2-cyclohexylethyl)-3-piperidinyl]ethyl}-7,9-dihydro-8H-purin-8-one] | < 1580 nM
27 | CCC[C@H](C)Oc1nc(N)c2[nH]c(=O)n(CCC3CCCNC3)c2n1 (stereo partly drawn) [Example 40, 6-Amino-2-{[(1S)-1-methylbutyl]oxy}-9-[2-(3-piperidinyl)ethyl]-7,9-dihydro-8H-purin-8-one] | < 1580 nM
28 | CCCCOc1nc(N)c2[nH]c(=O)n(CCCC3CCCNC3)c2n1 (stereo not shown) [Example 43, 6-Amino-2-(butyloxy)-9-[3-(3-piperidinyl)propyl]-7,9-dihydro-8H-purin-8-one] | < 1580 nM
29 | CCCCOc1nc(N)c2[nH]c(=O)n(CCCC3CCCN(CC)C3)c2n1 (stereo not shown) [Example 44, 6-Amino-2-(butyloxy)-9-[3-(1-ethyl-3-piperidinyl)propyl]-7,9-dihydro-8H-purin-8-one] | < 1580 nM
30 | CCCCOc1nc(N)c2[nH]c(=O)n(CCCC3CCCN(CCC)C3)c2n1 (stereo not shown) [Example 45, 6-Amino-2-(butyloxy)-9-[3-(1-propyl-3-piperidinyl)propyl]-7,9-dihydro-8H-purin-8-one] | < 1580 nM
31 | CCCCOc1nc(N)c2[nH]c(=O)n(CCCC3CCCN(C(C)C)C3)c2n1 (stereo not shown) [Example 46, 6-Amino-2-(butyloxy)-9-{3-[1-(1-methylethyl)-3-piperidinyl]propyl}-7,9-dihydro-8H-purin-8-one] | < 1580 nM
32 | CCCCOc1nc(N)c2[nH]c(=O)n(CCCC3CCCN(CCCC)C3)c2n1 (stereo not shown) [Example 47, 6-Amino-2-(butyloxy)-9-[3-(1-butyl-3-piperidinyl)propyl]-7,9-dihydro-8H-purin-8-one] | < 1580 nM
33 | CCCCOc1nc(N)c2[nH]c(=O)n(CCCC3CCCN(CC(C)C)C3)c2n1 (stereo not shown) [Example 48, 6-Amino-2-(butyloxy)-9-{3-[1-(2-methylpropyl)-3-piperidinyl]propyl}-7,9-dihydro-8H-purin-8-one hydrochloride] | < 1580 nM
34 | CCCCOc1nc(N)c2[nH]c(=O)n(CCCC3CCCN(CCC(C)C)C3)c2n1 (stereo not shown) [Example 49, 6-Amino-2-(butyloxy)-9-{3-[1-(3-methylbutyl)-3-piperidinyl]propyl}-7,9-dihydro-8H-purin-8-one] | < 1580 nM
